Read-outs that look alike come from different tables or passages of the source.

Assay [1] has as its target A. baumannii FabI (Acinetobacter baumannii, UniProt D0CAD5). The assay is described as follows: Differential scanning fluorimetry. Format: binding. The settings on record: relative to the holoenzyme. How it is done: supplemented with 100 µg/mL ampicillin at 37°C until OD600 reached 0.6-0.7. The cells were induced with 1mM IPTG and incubated for 20 hours at 18°C and spun down at 8000 rpm for 15 minutes. Cell pellet was resuspended in the lysis buffer (50 mM Tris-HCl pH 8.0, 500 mM Na Cl, 20 mM imidazole, 10% glycerol, 0.5 mM TCEP, protease inhibitor and Lysonase) and passed through microfluidizer followed by centrifugation and filtration to remove cell debris. The clarified lysate was supplemented with 20 mM imidazole and passed over a HisTrap column (Cytiva) pre-equilibrated with the wash buffer (50 mM Tris-HCl pH 8.0, 500 mM NaCl, 20 mM imidazole, 10% glycerol, 0.5 mM TCEP). The column was washed with the wash buffer and eluted over a 20-500 mM imidazole gradient. […]
Recombinant E. coli and A. baummani FabI enzymes were used in a continuous NADH absorbance assay (20 µL in 384w format). […] After shaking for 5 seconds the reaction was monitored at NADH absorbance (340nm, 25°C) using a Molecular Devices SpectraMax M5 microplate reader. The linear portion of the progress curve was fit using plate-reader software. Percentage activity was calculated relative to DMSO only and no-substrate controls in each plate and the data were fit to Morrison’s quadratic using Graphpad Prism 9.3 to obtain apparent inhibition constant (Ki app) values. […]

Assay [2] deals with Streptococcus pneumoniae. The assay is described as follows: MIC, Streptococcus pneumoniae strains. The class given is cell-based. How it is done: II. Materials and Methods for Biological Experiments
S. aureus ATCC 29213 and E. coli MG1655 were obtained from the American Type Culture Collection (ATCC). E. coli BW25113 and E. coli JW5503 were obtained from the Keio Collection. AR-bank strains were obtained from the Centers for Disease Control and Prevention and FDA Antibiotic Resistance Isolate Bank.
Antimicrobial susceptibility tests
Susceptibility testing was performed in biological triplicate, unless noted otherwise, using the micro-dilution broth method as outlined by the Clinical and Laboratory Standards Institute. Bacteria were cultured with cation-adjusted Mueller Hinton broth (Sigma Aldrich, catalogue number: 90922). […]
NH3: m/z 391.2 → 171.0. Fabimycin: m/z 405.3 → 145.3. Power analysis was not used to determine the number of replicates. Error bars represent the standard error of the mean of three biological replicates. All compounds evaluated in biological assays were ≥95% pure.

Chain of A. baumannii FabI (D0CAD5 entry or part of it): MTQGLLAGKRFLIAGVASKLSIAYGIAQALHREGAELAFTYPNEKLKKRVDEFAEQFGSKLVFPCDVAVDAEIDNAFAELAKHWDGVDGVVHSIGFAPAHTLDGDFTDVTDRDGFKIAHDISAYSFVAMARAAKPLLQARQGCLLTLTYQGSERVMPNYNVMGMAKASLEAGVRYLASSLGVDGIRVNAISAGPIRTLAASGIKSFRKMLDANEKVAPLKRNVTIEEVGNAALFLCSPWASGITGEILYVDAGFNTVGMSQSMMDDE

Take `Cc1c(CN(C)C(=O)/C=C/c2cnc3c(c2)CC[C@@H](N)C(=O)N3)oc2ccccc12` [(R)-7]: the ΔTm in assay [1] is 18 ± 0.5 °C.

As for `Cc1c(CN(C)C(=O)/C=C/c2cnc3c(c2)CC[C@H](N)C(=O)N3)oc2ccccc12` [fabimycin], the MIC in assay [2] (S. pneumoniae 202-5872), in assay [2] (S. pneumoniae 202-6154), in assay [2] (S. pneumoniae 202-6515), in assay [2] (S. pneumoniae 202-7382), in assay [2] (S. pneumoniae CO314937) and in assay [2] (S. pneumoniae MD77773) was over 128 µg/mL throughout. Further, the MIC in assay [2] (S. pneumoniae MD77841) was over 128 µg/mL; in assay [2] (S. pneumoniae NYO5984) it was over 128 µg/mL; in assay [2] (Streptococcus pneumoniae, ATCC49619, S. pneumoniae ATCC 49619, read-out: MIC) it was over 128 µg/mL; in assay [2] (Streptococcus pneumoniae, S. pneumoniae NYO5986, read-out: MIC), over 128 µg/mL. Moreover, in assay [1], the ΔTm stood at 24 ± 0.5 °C.
